This data set can be described thus: Cytotoxicity, MTT reduction assay, HELA cells. As to conditions: human, HELA cells (Acc57), 12.5-50 μM. Type of data set: cell-based. In outline:
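HELA (4000/well) and COS-7 (3400/well) cells were grown 24 h, then exposed 48 h at 37° C to peptides at 12.5, 25 and 50 μM in triplicate. MTT reduction read at 595 nm; growth % relative to time-zero, and GI50 interpolated by trend line.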
Background: Tetrazolium dyes change colour on reduction, which living cells bring about.

In general, GI50 refers to the concentration giving 50% growth inhibition.

Numbered stars: 1 amine (or outer) side, 2 acyl side, 3 side chain; on linkers, the order of the positions; unused ones are H or OH. Bridge positions count the residues as written; N and C are the ends. Square brackets hold non-standard residues; d marks the D form. Side chains are listed from the residue outwards. Peptide text beside a SMILES is read from it. * marks the point of attachment. γGlu = O=C(O)[C@H](CCC(=O)[*:2])N[*:1]; Palmitoyl = CCCCCCCCCCCCCCCC(=O)*; Myristoyl = CCCCCCCCCCCCCC(=O)*; Lauroyl = CCCCCCCCCCCC(=O)*; Dab = NCC[C@H](N)C(=O)O

Regarding `CCCCCCCCCCCCCC(=O)N[C@@H](CCC(=O)NCCCC[C@@H]1NC(=O)[C@H](Cc2ccc(O)cc2)NC(=O)[C@@H]2CSSC[C@H](NC(=O)[C@H](Cc3ccc(O)cc3)NC(=O)[C@H](Cc3c[nH]cn3)NC(=O)[C@H](Cc3ccc(O)cc3)NC(=O)[C@@H]3CCCN3C(=O)[C@H]3CCCN3C(=O)[C@H](CCCCN)NC1=O)C(=O)N[C@@H](CO)C(=O)N[C@@H](C)C(=O)N1CCC[C@@H]1C(=O)N[C@@H](CCN)C(=O)N[C@@H](CCCNC(=N)N)C(=O)N[C@@H](Cc1ccc(O)cc1)C(=O)N2)C(=O)O` [Ex. 28] (cyclo(YHYCSA[dP][Dab]RYCYK([γGlu-Myristoyl])K[dP]P); disulfide 4-11), the GI50 at 48 h is greater than 39 µM. As for `CCCCCCCCCCCCCCCC(=O)N[C@@H](CCC(=O)NCCCC[C@@H]1NC(=O)[C@H](Cc2ccc(O)cc2)NC(=O)[C@@H]2CSSC[C@H](NC(=O)[C@H](Cc3ccc(O)cc3)NC(=O)[C@H](Cc3c[nH]cn3)NC(=O)[C@H](Cc3ccc(O)cc3)NC(=O)[C@@H]3CCCN3C(=O)[C@H]3CCCN3C(=O)[C@H](CCCCN)NC1=O)C(=O)N[C@@H](CO)C(=O)N[C@@H](C)C(=O)N1CCC[C@@H]1C(=O)N[C@@H](CCN)C(=O)N[C@@H](CCCNC(=N)N)C(=O)N[C@@H](Cc1ccc(O)cc1)C(=O)N2)C(=O)O` [Ex. 29] (cyclo(YHYCSA[dP][Dab]RYCYK([γGlu-Palmitoyl])K[dP]P); disulfide 4-11), the GI50 at 48 h is greater than 47 µM. Compound `CCCCCCCCCCCC(=O)NCCCC[C@@H]1NC(=O)[C@H](Cc2ccc(O)cc2)NC(=O)[C@@H]2CSSC[C@H](NC(=O)[C@H](C)NC(=O)[C@H](Cc3c[nH]cn3)NC(=O)[C@H](Cc3ccc(O)cc3)NC(=O)[C@@H]3CCCN3C(=O)[C@H]3CCCN3C(=O)[C@H](CCCCN)NC1=O)C(=O)N[C@@H](CCCNC(=N)N)C(=O)N[C@@H](C)C(=O)N1CCC[C@@H]1C(=O)N[C@@H](CCN)C(=O)N[C@@H](CCCNC(=N)N)C(=O)N[C@@H](Cc1ccc(O)cc1)C(=O)N2` [Ex. 17] (cyclo(YHACRA[dP][Dab]RYCYK(Lauroyl)K[dP]P); disulfide 4-11) yielded a GI50 at 48 h greater than 44 µM. Under `CCCCCCCCCCCC(=O)N[C@@H](CCC(=O)NCCCC[C@@H]1NC(=O)[C@H](Cc2ccc(O)cc2)NC(=O)[C@@H]2CSSC[C@H](NC(=O)[C@H](C)NC(=O)[C@H](Cc3c[nH]cn3)NC(=O)[C@H](Cc3ccc(O)cc3)NC(=O)[C@@H]3CCCN3C(=O)[C@H]3CCCN3C(=O)[C@H](CCCCN)NC1=O)C(=O)N[C@@H](CCCNC(=N)N)C(=O)N[C@@H](C)C(=O)N1CCC[C@@H]1C(=O)N[C@@H](CCN)C(=O)N[C@@H](CCCNC(=N)N)C(=O)N[C@@H](Cc1ccc(O)cc1)C(=O)N2)C(=O)O` [Ex. 26] (cyclo(YHACRA[dP][Dab]RYCYK([γGlu-Lauroyl])K[dP]P); disulfide 4-11) stands greater than 50 µM; under `CCCCCCCCCCCC(=O)N[C@@H](CCC(=O)NCCCC[C@@H]1NC(=O)[C@H](Cc2ccc(O)cc2)NC(=O)[C@@H]2CSSC[C@H](NC(=O)[C@H](Cc3ccc(O)cc3)NC(=O)[C@H](Cc3c[nH]cn3)NC(=O)[C@H](Cc3ccc(O)cc3)NC(=O)[C@@H]3CCCN3C(=O)[C@H]3CCCN3C(=O)[C@H](CCCCN)NC1=O)C(=O)N[C@@H](CO)C(=O)N[C@@H](C)C(=O)N1CCC[C@@H]1C(=O)N[C@@H](CCN)C(=O)N[C@@H](CCCNC(=N)N)C(=O)N[C@@H](Cc1ccc(O)cc1)C(=O)N2)C(=O)O` [Ex. 25] (cyclo(YHYCSA[dP][Dab]RYCYK([γGlu-Lauroyl])K[dP]P); disulfide 4-11), greater than 43 µM; under `CCCCCCCCCCCCCCCC(=O)NCCCC[C@@H]1NC(=O)[C@H](Cc2ccc(O)cc2)NC(=O)[C@@H]2CSSC[C@H](NC(=O)[C@H](Cc3ccc(O)cc3)NC(=O)[C@H](Cc3c[nH]cn3)NC(=O)[C@H](Cc3ccc(O)cc3)NC(=O)[C@@H]3CCCN3C(=O)[C@H]3CCCN3C(=O)[C@H](CCCCN)NC1=O)C(=O)N[C@@H](CO)C(=O)N[C@@H](C)C(=O)N1CCC[C@@H]1C(=O)N[C@@H](CCN)C(=O)N[C@@H](CCCNC(=N)N)C(=O)N[C@@H](Cc1ccc(O)cc1)C(=O)N2` [Ex. 20] (cyclo(YHYCSA[dP][Dab]RYCYK(Palmitoyl)K[dP]P); disulfide 4-11), greater than 31 µM.

For the origin of these results see patent US8716242B2, “β-hairpin peptidomimetics” (priority 2009, dated 2014).
